Laboratory results: ChEMBL document CHEMBL4017480, “Discovery and optimization of selective FGFR4 inhibitors via scaffold hopping” (Bioorg Med Chem Lett, 2017)

What was measured:
[1] = Stability in human plasma assessed as compound remaining at 2 uM measured after 2 hrs by LC-MS/MS analysis; assay type: ADME, cell-free; conditions: read-out: Stability
[2] = Intrinsic clearance in human liver microsomes at 1 uM measured after 60 mins in presence of NADPH by LC-MS/MS analysis; assay type: ADME, microsome; conditions: read-out: CLH
[3] = Intrinsic clearance in mouse liver microsomes at 1 uM measured after 60 mins in presence of NADPH by LC-MS/MS analysis; assay type: ADME, microsome; conditions: read-out: CLH
[4] = molecular target: Fibroblast growth factor receptor 1 (Homo sapiens, UniProt P11362); experiment: Inhibition of recombinant human His-tagged FGFR1 cytoplasmic domain (308 to 731 residues) expressed in baculovirus expression system using tyr 04 as substrate measured within 60 mins by Z-LYTE assay
[5] = Stability in mouse plasma assessed as compound remaining at 2 uM measured after 2 hrs by LC-MS/MS analysis; assay type: ADME, cell-free; conditions: read-out: Stability
[6] = molecular target: Fibroblast growth factor receptor 4 (Homo sapiens, UniProt P22455); experiment: Inhibition of recombinant human N-terminal His-tagged FGFR4 cytoplasmic domain […] expressed in baculovirus expression system using tyr 04 peptide as substrate measured within 90 mins by Z-LYTE assay
Chain of Fibroblast growth factor receptor 4 (P22455 whole entry, the tested form may be a part): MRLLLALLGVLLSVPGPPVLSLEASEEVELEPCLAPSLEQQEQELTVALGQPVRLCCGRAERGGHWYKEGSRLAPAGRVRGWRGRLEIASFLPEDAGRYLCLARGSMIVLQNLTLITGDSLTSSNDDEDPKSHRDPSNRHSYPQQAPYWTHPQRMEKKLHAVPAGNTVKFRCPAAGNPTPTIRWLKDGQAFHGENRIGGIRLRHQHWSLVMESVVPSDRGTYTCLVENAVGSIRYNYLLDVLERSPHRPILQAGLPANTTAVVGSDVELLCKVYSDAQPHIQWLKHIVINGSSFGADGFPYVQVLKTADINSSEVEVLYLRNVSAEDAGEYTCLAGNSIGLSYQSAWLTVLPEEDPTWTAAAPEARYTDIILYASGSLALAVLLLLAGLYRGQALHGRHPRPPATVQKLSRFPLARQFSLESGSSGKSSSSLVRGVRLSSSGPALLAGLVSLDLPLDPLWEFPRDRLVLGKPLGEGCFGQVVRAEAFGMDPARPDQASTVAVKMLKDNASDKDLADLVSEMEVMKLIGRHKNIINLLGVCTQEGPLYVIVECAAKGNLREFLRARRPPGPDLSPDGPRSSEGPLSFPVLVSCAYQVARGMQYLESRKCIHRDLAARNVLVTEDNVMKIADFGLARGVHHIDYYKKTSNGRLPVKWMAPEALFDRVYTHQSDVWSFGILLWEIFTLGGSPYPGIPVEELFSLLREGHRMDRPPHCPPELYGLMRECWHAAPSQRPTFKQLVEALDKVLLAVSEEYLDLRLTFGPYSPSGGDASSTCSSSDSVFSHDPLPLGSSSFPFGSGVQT

Chain of Fibroblast growth factor receptor 1 (P11362 whole entry, the tested form may be a part): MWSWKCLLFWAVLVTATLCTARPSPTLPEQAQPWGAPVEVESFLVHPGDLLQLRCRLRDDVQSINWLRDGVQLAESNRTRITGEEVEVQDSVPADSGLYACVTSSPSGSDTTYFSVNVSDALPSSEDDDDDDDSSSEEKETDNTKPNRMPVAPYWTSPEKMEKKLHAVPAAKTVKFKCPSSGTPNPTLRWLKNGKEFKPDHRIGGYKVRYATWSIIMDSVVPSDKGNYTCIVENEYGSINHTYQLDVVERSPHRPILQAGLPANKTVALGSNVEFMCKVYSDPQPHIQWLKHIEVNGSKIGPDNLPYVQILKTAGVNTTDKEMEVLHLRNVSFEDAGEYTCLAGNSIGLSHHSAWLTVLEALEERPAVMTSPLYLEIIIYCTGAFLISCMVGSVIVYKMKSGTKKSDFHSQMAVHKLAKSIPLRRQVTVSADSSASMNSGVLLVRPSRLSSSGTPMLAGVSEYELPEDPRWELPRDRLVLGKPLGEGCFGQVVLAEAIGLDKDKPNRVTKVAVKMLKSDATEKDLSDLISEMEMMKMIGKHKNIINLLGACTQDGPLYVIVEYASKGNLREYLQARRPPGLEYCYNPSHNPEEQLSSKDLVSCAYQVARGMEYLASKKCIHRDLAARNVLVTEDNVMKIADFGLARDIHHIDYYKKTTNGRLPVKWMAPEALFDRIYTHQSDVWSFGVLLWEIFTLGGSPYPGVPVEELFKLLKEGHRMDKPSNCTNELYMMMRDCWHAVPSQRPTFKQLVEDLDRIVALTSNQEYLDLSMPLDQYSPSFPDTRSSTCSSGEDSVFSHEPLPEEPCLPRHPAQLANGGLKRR

| remaining at 2 h, 2 µM [1] | CLint scaled at 1 µM [2] | CLint scaled at 1 µM [3] | IC50 [4] | remaining at 2 h, 2 µM [5] | IC50 [6] | Structure (SMILES) |
| --- | --- | --- | --- | --- | --- | --- |
|  |  |  |  | 0.2% |  | C=CC(=O)Nc1cccc(C)c1Nc1ncc(OCc2c(Cl)c(OC)cc(OC)c2Cl)cn1 |
|  |  |  | > 10 µM |  | > 10 µM | C=CC(=O)Nc1cccc(C)c1Nc1ncc(OC(C)c2c(Cl)c(OC)cc(OC)c2Cl)cn1 (configuration not stated) |
|  |  |  | > 10 µM |  |  | C=CC(=O)Nc1cccc(C)c1Nc1ncc(OCc2cc(OC)cc(OC)c2)cn1 |

More lines, now with the values behind:

| Structure (SMILES) | remaining at 2 h, 2 µM [1] | CLint scaled at 1 µM [2] | CLint scaled at 1 µM [3] | IC50 [4] | remaining at 2 h, 2 µM [5] | IC50 [6] |
| --- | --- | --- | --- | --- | --- | --- |
| C=CC(=O)N[C@H]1CCOC[C@H]1Nc1ncc(OCc2c(F)c(OC)cc(OC)c2F)cn1 | 90% | 46 mL/min/kg | 564 mL/min/kg | > 10 µM | 100% |  |
| C=CC(=O)Nc1ccccc1Nc1ncc(OCc2c(F)c(OC)cc(OC)c2F)cn1 |  |  |  | 0.06 µM |  |  |
| C=CC(=O)Nc1cc(N2CCN(CC)CC2)cc(C)c1Nc1ncc(OCc2c(F)c(OC)cc(OC)c2F)cn1 |  | 120 mL/min/kg | 180 mL/min/kg | 2.9 µM | 0.1% |  |
| C=CC(=O)N[C@H]1CCCC[C@H]1Nc1ncc(OCc2c(F)c(OC)cc(OC)c2F)cn1 (racemic) | 96% | 154 mL/min/kg | 2030 mL/min/kg | 3.3 µM | 96% |  |
| C=CC(=O)N[C@@H]1COC[C@@H]1Nc1ncc(OCc2c(F)c(OC)cc(OC)c2F)cn1 |  |  |  | 7.4 µM |  | 3.5 µM |
| C=CC(=O)Nc1cc(N2CCN(C(C)=O)CC2)cc(C)c1Nc1ncc(OCc2c(F)c(OC)cc(OC)c2F)cn1 |  | 265 mL/min/kg | 220 mL/min/kg | 9.5 µM | 0.3% |  |
| C=C(C)C(=O)Nc1cc(N2CCN(CC)CC2)cc(C)c1Nc1ncc(OCc2c(F)c(OC)cc(OC)c2F)cn1 |  |  |  | 4.8 µM | 0.4% |  |
